Marks after values point to notes of the source that are not given here.
What was measured:
[1] = sucrose = 1; ref Schiffman and Gatlin (1993); cited from earlier work
TAS1R2/TAS1R3 = biological target: T1, TAS1R2/TAS1R3 (Homo sapiens, UniProt Q7RTX0+Q8TE23); assay: Calcium mobilization assay, HEK293T-Gα16gust44 cells expressing the sweet taste receptor; settings: sweet compound alone
T1 sequence (Q8TE23 20-839): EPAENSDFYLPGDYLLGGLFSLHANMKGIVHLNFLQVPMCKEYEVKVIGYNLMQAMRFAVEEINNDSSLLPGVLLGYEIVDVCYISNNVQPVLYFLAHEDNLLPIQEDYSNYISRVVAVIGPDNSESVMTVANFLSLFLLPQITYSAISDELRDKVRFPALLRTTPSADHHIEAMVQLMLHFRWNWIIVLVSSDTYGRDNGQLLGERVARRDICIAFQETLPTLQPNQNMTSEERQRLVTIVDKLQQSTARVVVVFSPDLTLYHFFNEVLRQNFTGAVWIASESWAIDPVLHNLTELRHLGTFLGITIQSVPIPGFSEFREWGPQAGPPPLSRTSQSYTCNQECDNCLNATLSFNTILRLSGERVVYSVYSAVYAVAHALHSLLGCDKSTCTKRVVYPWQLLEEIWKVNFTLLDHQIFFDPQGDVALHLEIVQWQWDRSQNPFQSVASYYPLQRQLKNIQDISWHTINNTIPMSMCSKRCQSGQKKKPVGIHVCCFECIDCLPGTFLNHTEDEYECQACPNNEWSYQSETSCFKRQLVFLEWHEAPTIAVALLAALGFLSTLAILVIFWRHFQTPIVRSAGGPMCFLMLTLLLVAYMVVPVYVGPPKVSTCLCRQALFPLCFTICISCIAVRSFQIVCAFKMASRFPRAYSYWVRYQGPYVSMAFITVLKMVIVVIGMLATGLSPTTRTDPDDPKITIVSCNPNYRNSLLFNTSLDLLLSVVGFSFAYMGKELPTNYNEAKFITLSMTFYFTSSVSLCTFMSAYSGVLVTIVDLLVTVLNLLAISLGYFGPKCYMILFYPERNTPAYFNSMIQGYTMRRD
T1 sequence (Q7RTX0 21-852): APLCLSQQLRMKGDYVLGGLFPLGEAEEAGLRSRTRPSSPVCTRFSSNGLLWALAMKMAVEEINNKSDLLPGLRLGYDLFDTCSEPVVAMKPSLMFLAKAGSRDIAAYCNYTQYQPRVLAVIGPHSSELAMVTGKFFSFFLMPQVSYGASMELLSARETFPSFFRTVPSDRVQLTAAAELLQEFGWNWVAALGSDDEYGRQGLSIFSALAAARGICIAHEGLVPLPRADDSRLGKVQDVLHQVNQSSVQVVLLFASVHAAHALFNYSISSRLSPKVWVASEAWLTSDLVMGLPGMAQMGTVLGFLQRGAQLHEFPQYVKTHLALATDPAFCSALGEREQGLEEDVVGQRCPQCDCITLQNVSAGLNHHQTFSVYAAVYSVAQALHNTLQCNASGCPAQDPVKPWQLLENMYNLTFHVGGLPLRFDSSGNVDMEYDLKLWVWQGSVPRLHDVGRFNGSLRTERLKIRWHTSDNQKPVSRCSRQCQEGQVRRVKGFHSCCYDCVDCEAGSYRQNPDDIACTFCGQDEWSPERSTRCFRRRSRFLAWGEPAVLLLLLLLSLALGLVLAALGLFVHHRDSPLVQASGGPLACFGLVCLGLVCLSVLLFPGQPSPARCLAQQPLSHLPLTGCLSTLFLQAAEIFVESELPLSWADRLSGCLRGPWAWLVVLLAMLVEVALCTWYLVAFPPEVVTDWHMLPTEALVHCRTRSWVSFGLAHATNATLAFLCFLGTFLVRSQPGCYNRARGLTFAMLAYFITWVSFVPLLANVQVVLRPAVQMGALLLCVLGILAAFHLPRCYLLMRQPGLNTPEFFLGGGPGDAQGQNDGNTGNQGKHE
Method: Different concentration ranges were tested depending on the injected sweet compound. […] All of the concentration-receptor combinations were measured in triplicate, and each experiment was repeated at least 3 times. The Ca^2+ change was expressed as a fractional change in fluorescent light intensity: ΔF/F = (F − F0)/F0, where F was the fluorescent light intensity at each point, and F0 was the value of fluorescent light emitted prior to stimulus application. To calculate dose–response relationships, the changes in fluorescence upon stimulus application were averaged, mock-subtracted and baseline-corrected. The resulting obtained dose–response data were adjusted by using a 4-parameter logistic equation.

TAS2R1 = settings: ref Meyerhof et al. 2010; cited from earlier work
TAS2R8 = settings: ref Meyerhof et al. 2010; cited from earlier work

## OC[C@H]1O[C@@](CO)(O[C@H]2O[C@H](CO)[C@@H](O)[C@H](O)[C@H]2O)[C@@H](O)[C@@H]1O [Sucrose, reference compound]
[1]
  Sweetness potency: 1^g
TAS1R2/TAS1R3; maximal signal amplitude
  Max ΔF/F0: 0.10 ± 0.03

## O=S(=O)(O)NC1CCCCC1 [cyclamate]
TAS2R1
  concentration at which activation of TAS2R1 occurs: approximately 30 mM
TAS2R8
  concentration at which activation of TAS2R8 occurs: approximately 30 mM

B1: thaumatin (protein)
chain: ATFEIVNRCSYTVWAAASKGDAALDAGGRQLNSGESWTINVEPGTNGGKIWARTDCYFDDSGSGICKTGDCGGLLRCKRFGRPPTTLAEFSLNQYGKDYIDISNIKGFNVPMDFSPTTRGCRGVRCAADIVGQCPAKLKAPGGGCNDACTVFQTSEYCCTTGKCGPTEYSRFFKRLCPDAFSYVLDKPTTVTCPGSSNYRVTFCPTA
modifications: 8 disulfide bonds; natural (E957) thaumatin is a mixture of mainly thaumatin I and II
TAS1R2/TAS1R3; read-out: EC50 value
  EC50: 12 ± 2 µM
